# Assay results published in patent publication US20230047816A1 (priority 2018, published 2023).
# pIC50: −log10 of the molar value.
# Molecular target: Recombinant full length human PFKFB3 (Homo sapiens, UniProt Q16875)
# Assay: PFKFB3 kinase activity assay (ADP production, ADP-Glo)
# Recombinant full length human PFKFB3, sequence (Q16875 whole entry): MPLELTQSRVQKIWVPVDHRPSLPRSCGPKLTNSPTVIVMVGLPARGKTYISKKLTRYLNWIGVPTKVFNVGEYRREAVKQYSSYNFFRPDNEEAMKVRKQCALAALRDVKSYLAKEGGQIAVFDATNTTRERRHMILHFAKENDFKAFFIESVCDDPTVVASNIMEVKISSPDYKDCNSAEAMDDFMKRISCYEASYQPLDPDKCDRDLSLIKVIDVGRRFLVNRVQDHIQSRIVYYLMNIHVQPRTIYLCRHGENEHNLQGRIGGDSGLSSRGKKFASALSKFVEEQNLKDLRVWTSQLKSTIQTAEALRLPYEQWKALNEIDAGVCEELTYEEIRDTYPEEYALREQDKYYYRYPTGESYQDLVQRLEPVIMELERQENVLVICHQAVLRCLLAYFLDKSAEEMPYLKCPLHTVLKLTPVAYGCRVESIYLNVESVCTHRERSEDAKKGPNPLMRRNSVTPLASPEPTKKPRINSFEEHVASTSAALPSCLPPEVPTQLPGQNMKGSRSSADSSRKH
row,pIC50,Structure (SMILES)
1,> 6.30,"O=C(O)c1cc(C(=O)Nc2cc(-c3ccc(F)c(F)c3)ccc2C(=O)O)c(C(=O)O)cc1O [Example 28, 2-({4-carboxy-3′,4′-difluoro-[1,1′-biphenyl]-3-yl}carbamoyl)-5-hydroxybenzene-1,4-dicarboxylic acid]"
2,4.70 to 5.30,"O=C(NS(=O)(=O)c1ccccc1)c1ccc2c(c1)C(=O)N(c1ccc(-c3ccccc3)cc1-c1nnn[nH]1)C2=O [Compound 135, N-(Benzenesulfonyl)-2-(3-(1H-tetrazol-5-yl)-[1,1′-biphenyl]-4-yl)-1,3-dioxo-2,3-dihydro-1H-isoindole-5-carboxamide]"
3,> 6.30,"O=C(O)c1cc(C(=O)O)c(C(=O)Nc2cc(-c3ccc(Cl)cc3Cl)ccc2C(=O)O)cc1F [Example 59, 4-({4-carboxy-2′,4′-dichloro-[1,1′-biphenyl]-3-yl}carbamoyl)-6-fluorobenzene-1,3-dicarboxylic acid]"
4,4.70 to 5.30,"COc1ccc(-c2c(C)sc(NC(=O)c3cc(C(=O)O)ccc3C(=O)O)c2C#N)cc1 [Example 29, 2-{[3-cyano-4-(4-methoxyphenyl)-5-methylthiophen-2-yl]carbamoyl}benzene-1,4-dicarboxylic acid]"
5,5.30 to 5.70,CN(C)CCOC(=O)c1ccc(-c2ccccc2)cc1N1C(=O)c2ccc(-c3c[nH]nn3)cc2C1=O [Example 66]
6,> 6.30,"CN(C)CCCOC(=O)c1ccc(-c2ccc(Cl)cc2Cl)cc1NC(=O)c1cc(O)c(C(=O)O)cc1C(=O)O [Example 51, 4-[(2′,4′-dichloro-4-{[3-(dimethylamino)propoxy]carbonyl}-[1,1′-biphenyl]-3-yl)carbamoyl]-6-hydroxybenzene-1,3-dicarboxylic acid]"
7,> 6.30,"CC(CN(C)C)OC(=O)c1ccc(-c2ccc(Cl)cc2Cl)cc1NC(=O)c1cc(C(=O)O)c(O)cc1C(=O)O (stereo not shown) [Example 73, 2-{[2′,4′-dichloro-4-({[1-(dimethylamino)propan-2-yl]oxy}carbonyl)-[1,1′-biphenyl]-3-yl]carbamoyl}-5-hydroxybenzene-1,4-dicarboxylic acid]"
8,> 4.70,"NS(=O)(=O)c1ccc(-c2ccccc2)cc1N1C(=O)c2ccc(-c3c[nH]nn3)cc2C1=O [compound 148, 3-(1,3-dioxo-5-(1H-1,2,3-triazol-4-yl)isoindolin-2-yl)biphenyl-4-sulfonamide]"
9,> 4.70,"NCCOC(=O)c1ccc(-c2ccccc2)cc1N1C(=O)c2ccc(-c3c[nH]nn3)cc2C1=O [Compound 72, 3-[1,3-Dioxo-5-(1H-[1,2,3]triazol-4-yl)-1,3-dihydroisoindol-2-yl]biphenyl-4-carboxylic Acid 2-amino-ethyl ester]"
10,> 6.30,"CC(COC(=O)c1ccc(-c2ccc(Cl)cc2Cl)cc1NC(=O)c1cc(O)c(C(=O)O)cc1C(=O)O)N(C)C (stereo not shown) [Example 66, 4-[(2′,4′-dichloro-4-{[2-(dimethylamino)propoxy]carbonyl}-[1,1′-biphenyl]-3-yl)carbamoyl]-6-hydroxybenzene-1,3-dicarboxylic acid]"
11,> 4.70,"COC(=O)c1ccc(-c2ccccc2)cc1N1Cc2ccc(-c3c[nH]nn3)cc2C1=O [Compound 91, 3-[1-Oxo-6-(1H-[1,2,3]triazol-4-yl)-1,3-dihydroisoindol-2-yl]biphenyl-4-carboxylic acid methyl ester]"
12,> 4.70,"Cn1cc(-c2ccccc2)cc(N2C(=O)c3ccc(-c4c[nH]nn4)cc3C2=O)c1=O [compound 147, 2-(1-methyl-2-oxo-5-phenyl-1,2-dihydropyridin-3-yl)-5-(1H-1,2,3-triazol-4-yl)isoindoline-1,3-dione]"
13,> 4.70,"CC(C)(C)OC(=O)c1ccc(-c2ccc(F)c(F)c2)cc1N1Cc2ccc(-c3c[nH]nn3)cc2C1=O [Compound 117, 3′,4′-Difluoro-3-[1-oxo-6-(1H-[1,2,3]triazol-4-yl)-1,3-dihydro-isoindol-2-yl]-biphenyl-4-carboxylic acid tert-butyl ester]"
